{
  "source": "patent US12343355B2",
  "about": "“Methods for decreasing the incidence of necrotizing enterocolitis in infants, toddlers, or children using human milk oligosaccharides” (ABBOTT LABORATORIES, priority 2010, dated 2025)",
  "key": {"[1]": {"tested_on": "diluted feces of infants (fecal inoculum)", "assay": "In vitro fermentation model simulating large bowel fermentation, infant fecal inoculum (pH, SCFA, fermentation rate)", "assay_type": "cell-based", "conditions": "for pH change from baseline: at 3, 6, and 12 h after inoculation, compared among substrates"}, "[2]": {"tested_on": "B. infantis ATCC 15697", "assay": "Bacterial growth assay (OD600)", "assay_type": "cell-based, Bifidobacterium infantis", "conditions": "carbohydrate 1% in sMRS+cysteine", "method": "(§1) Subsequently, the cultures are passed twice on a semi-synthetic MRS medium ([…] which is supplemented with 1% (w/v) filter-sterilized glucose as the sole carbohydrate source. […] [table] After the 2nd pass in sMRS+glucose+cysteine, the cultures are washed once with 10 mL of sterile sMRS+cysteine (no carbohydrate), resuspended in 10 ml of sterile sMRS+ cysteine (no carbohydrate) and then used as a 1% inoculum. […] Cell growth is performed in 250 uL of sMRS+cysteine covered with 50 uL of mineral oil in a Bioscreen 100-well Honeycomb plate. Cell growth is monitored by measuring optical density at 600 nm (OD600) using a Bioscreen C Automated Microbiology Growth Curve Analysis System. The plate reader is operated in discontinuous mode, with absorbance readings performed in 30-minute intervals, and preceded by 30-second shaking intervals at maximum speed. Controls consist of inoculated medium lacking carbohydrate. […] All three plates include a positive control (glucose) and negative control (no carbohydrate). The OD600 data for each carbohydrate is corrected by subtracting the OD600 of the basal media (sMRS)+cysteine from the sample plate for each probiotic. Maximum OD is determined by inspection of the corrected growth data. OD is determined by subtracting the initial corrected OD (time point 0) from the maximum corrected OD. Samples are grown in biologically independent triplicates and the resulting growth kinetic data are expressed as the mean of these replicates. For the growth curve plots, OD600 vs. time is first plotted for the bacteria grown on medium lacking carbohydrate (sMRS). For all other carbohydrates, the OD600 data is corrected by subtracting the OD600 of sMRS."}, "[3]": {"tested_on": "B. infantis M-63", "assay": "Bacterial growth assay (OD600)", "assay_type": "cell-based, Bifidobacterium infantis", "conditions": "carbohydrate 1% in sMRS+cysteine", "method": "as §1"}, "[4]": {"tested_on": "B. breve ATCC 15700", "assay": "Bacterial growth assay (OD600)", "assay_type": "cell-based, Bifidobacterium breve", "conditions": "carbohydrate 1% in sMRS+cysteine", "method": "as §1, with “The OD600 data for each carbohydrate is corrected by subtracting the OD600 of the basal media (sMRS)+cysteine from the sample plate for each probiotic.” left out, “For the growth curve plots, OD600 vs. time is first plotted for the bacteria grown on medium lacking carbohydrate (sMRS). For all other carbohydrates, the OD600 data is corrected by subtracting the OD600 of sMRS.” left out"}, "[5]": {"tested_on": "Caco-2 cells", "assay": "Sucrase activity in Caco-2 cells", "assay_type": "cell-based, human", "conditions": "72 hours, various levels"}, "[6]": {"tested_on": "Caco-2 cells", "assay": "Transepithelial resistance of Caco-2 cells (Ussing chambers)", "assay_type": "cell-based, human", "conditions": "more mature Caco-2 cells", "source_text": "FIGS. 20-22 illustrate the effect of LNnT, 2′FL, and 6′SL on cell resistance (transepithelial resistance), which is a marker for epithelial barrier function, wherein a higher resistance is associated with a higher barrier function. Epithelial cell resistance or barrier function is a measure of differentiated epithelial cell function. Specifically, as the cells mature, tighter junctions between the cells are formed resulting in a stronger epithelial cell barrier. This barrier prevents the movement of large molecules, bacteria, or viruses from one side of the barrier to the other, which could improve resistance to infection, sepsis, and NEC. […] Transepithelial resistance was measured using Transwell Snapwell inserts containing the desired cell culture and were transferred to modified Ussing chambers and bathed in modified Kreb's solution at 37 C with 95% oxygen and 5% carbon dioxide. Transepithelial resistance was measured as the passive transport of ions across the monolayers."}, "[7]": {"tested_on": "HT-29 cells", "assay": "Alkaline phosphatase activity in HT-29 cells (cell differentiation)", "conditions": "72 hours"}, "[8]": {"tested_on": "Caco-2 cells", "assay": "Alkaline phosphatase activity in Caco-2 cells (cell differentiation)", "conditions": "72 hours, LNnT or 2′FL 20-2000 mg/L, 6′SL 40-4000 mg/mL"}, "[9]": {"tested_on": "enteric nerve cells", "assay": "Peristalsis model using luminally perfused mouse colon", "method": "In this Example, the effect of 2′-fucosyllactose (2′FL) or 3′-fucosyllactose (3′FL) on stimulating enteric nerve cells in the gastrointestinal tract of rodents is analyzed.\nSpecifically, a peristalsis model using luminally perfused mouse colon is used to test the stimulation effect of 2′FL or 3′FL on enteric nerve cells. Colon muscle is perfused with 2′FL or 3′FL, at concentrations of 1 mg/mL, 0.5 mg/mL, and 0.1 mg/mL, for 15 minutes. The frequency and amplitude of contractions of the muscle is analyzed."}, "[10]": {"tested_on": "Bifidobacterium spp. (12 strains)", "assay": "Bacterial growth assay (OD600), all bifidobacteria strains tested", "assay_type": "cell-based", "conditions": "carbohydrate 1% in sMRS+cysteine", "method": "as §1"}, "[11]": {"conditions": "LNnT 20-2000 mg/L, 6′SL 40-4000 mg/mL"}, "[12]": {"conditions": "colon muscle perfused at 1, 0.5 and 0.1 mg/mL for 15 minutes"}},
  "data": [
    {"smiles": "CC(=O)N[C@H]1[C@H](O[C@H]2[C@@H](O)[C@@H](CO)O[C@@H](O[C@H]3[C@H](O)[C@@H](O)C(O)O[C@@H]3CO)[C@@H]2O)O[C@H](CO)[C@@H](O[C@@H]2O[C@H](CO)[C@H](O)[C@H](O)[C@H]2O)[C@@H]1O", "note": "(mixture of isomers) [LNnT, Lacto-N-neotetraose]", "values": [
      {"measurement": "fermentation rate", "setting": "[1]", "result": "about 4,488 i·tg/g of dry matter/hour"},
      {"measurement": "pH change from baseline", "setting": "[1]", "result": "greatest"},
      {"measurement": "growth / ability to ferment (OD600)", "setting": "[2]", "result": "grow well"},
      {"measurement": "growth / ability to ferment (OD600)", "setting": "[3]", "result": "grow well"},
      {"measurement": "growth / ability to ferment (OD600)", "setting": "[4]", "result": "grow well"},
      {"measurement": "sucrase activity per milligram of protein", "setting": "[5]", "result": "no apparent effect"},
      {"measurement": "cell resistance (transepithelial resistance)", "setting": "[6]", "result": "positive effect on cell resistance"},
      {"measurement": "alkaline phosphatase activity per milligram of protein", "setting": "[7]; [11]", "result": "trend toward an increase"},
      {"measurement": "alkaline phosphatase activity", "setting": "[8]", "result": "trend toward an increase"}
    ]},
    {"smiles": "C[C@@H]1O[C@@H](O[C@H]2[C@H](O[C@H]3[C@H](O)[C@@H](O)C(O)O[C@@H]3CO)O[C@H](CO)[C@H](O)[C@@H]2O)[C@@H](O)[C@H](O)[C@@H]1O", "note": "(stereo partly drawn) [2′FL, 2′-a-L-Fucopyranosyl-D-Lactose]", "values": [
      {"measurement": "fermentation rate", "setting": "[1]", "result": "about 4,872 i·tg/g of dry matter/hour"},
      {"measurement": "pH change from baseline", "setting": "[1]", "result": "greatest"},
      {"measurement": "amplitude of contraction", "setting": "[9]; [12]", "result": "reduced consistently and in a dose response fashion"},
      {"measurement": "frequency of contraction", "setting": "[9]; [12]", "result": "reduced consistently and in a dose response fashion"},
      {"measurement": "stimulation of nerve cells", "setting": "[9]; without involving gut microbiota and/or their metabolites", "result": "direct stimulation of nerve cells"},
      {"measurement": "growth / ability to ferment (OD600)", "setting": "[10]", "result": "Only B. infantis ATCC 15697 and B. infantis M-63 are able to ferment"},
      {"measurement": "growth / ability to ferment (OD600)", "setting": "[2]", "result": "able to ferment"},
      {"measurement": "growth / ability to ferment (OD600)", "setting": "[3]", "result": "able to ferment"},
      {"measurement": "sucrase activity per milligram of protein", "setting": "[5]", "result": "trend toward sucrase activity"},
      {"measurement": "alkaline phosphatase activity per milligram of protein", "setting": "[7]; at the high dose (2000 mg/L)", "result": "significant increase in alkaline phosphatase activity"},
      {"measurement": "alkaline phosphatase activity", "setting": "[8]", "result": "trend toward increased alkaline phosphatase activity"}
    ]},
    {"smiles": "CC(=O)N[C@H]1[C@H]([C@H](O)[C@H](O)CO)O[C@@](O[C@H]2[C@@H](O)[C@@H](CO)O[C@@H](O[C@H]3[C@H](O)[C@@H](O)C(O)O[C@@H]3CO)[C@@H]2O)(C(=O)O)C[C@@H]1O", "note": "(some centres unmarked) [3′SL, 3′-sialyllactose]", "values": [
      {"measurement": "growth / ability to ferment (OD600)", "setting": "[10]", "result": "Only B. infantis ATCC 15697 and B. infantis M-63 are able to ferment"},
      {"measurement": "growth / ability to ferment (OD600)", "setting": "[2]", "result": "able to ferment"},
      {"measurement": "growth / ability to ferment (OD600)", "setting": "[3]", "result": "able to ferment"}
    ]},
    {"smiles": "CC(=O)N[C@H]1C([C@H](O)[C@H](O)CO)O[C@@](OCC2O[C@@H](O[C@@H]3C(CO)OC(O)C(O)[C@H]3O)C(O)[C@@H](O)[C@H]2O)(C(=O)[O-])C[C@H]1O.[Na+]", "note": "(some centres unmarked) [6′SL, a-(2-6′)-N-Acetylneuraminyl-lactose sodium salt]", "values": [
      {"measurement": "fermentation rate", "setting": "[1]", "result": "about 1,809 i·tg/g of dry matter/hour"},
      {"measurement": "total SCFA production", "setting": "[1]; 12 h of fermentation", "result": "greater (P<0.05) for the 6′SL and GOS substrates compared to 2′FL"},
      {"measurement": "total SCFA production", "setting": "[1]; after 3 and 6 h of fermentation", "result": "lower (P<0.05) with 6′SL compared to GOS"},
      {"measurement": "growth / ability to ferment (OD600)", "setting": "[10]", "result": "Only B. infantis ATCC 15697 and B. infantis M-63 are able to ferment"},
      {"measurement": "growth / ability to ferment (OD600)", "setting": "[2]", "result": "able to ferment"},
      {"measurement": "growth / ability to ferment (OD600)", "setting": "[3]", "result": "able to ferment"},
      {"measurement": "sucrase activity per milligram of protein", "setting": "[5]", "result": "no apparent effect"},
      {"measurement": "alkaline phosphatase activity per milligram of protein", "setting": "[7]; [11]", "result": "no apparent effect"},
      {"measurement": "alkaline phosphatase activity", "setting": "[8]", "result": "no apparent effect"}
    ]},
    {"smiles": "C[C@H](O)[C@@H](O)[C@@H](O)[C@H](O)C=O", "note": "[L-fucose, L-(−) Fucose, reference compound]", "values": [
      {"measurement": "growth / ability to ferment (OD600)", "setting": "[10]", "result": "None of the bifidobacteria are able to ferment"},
      {"measurement": "growth / ability to ferment (OD600)", "setting": "[2]", "result": "not able to ferment"},
      {"measurement": "growth / ability to ferment (OD600)", "setting": "[3]", "result": "not able to ferment"}
    ]},
    {"smiles": "CC(=O)N[C@H]1C(O)O[C@H](CO)[C@@H](O)[C@@H]1O", "note": "(stereo partly drawn) [NAG, N-acetyl-D-glucosamine, reference compound]", "values": [
      {"measurement": "growth / ability to ferment (OD600)", "setting": "[10]", "result": "Only B. breve ATCC 15700 is able to ferment"},
      {"measurement": "growth / ability to ferment (OD600)", "setting": "[4]", "result": "able to ferment"}
    ]},
    {"smiles": "O=C(CO)[C@@H](O)[C@H](O)[C@H](O)CO", "note": "[fructose, D-Fructose]", "values": [
      {"measurement": "growth / ability to ferment (OD600)", "setting": "[10]", "result": "majority of bifidobacteria is able to ferment"}
    ]},
    {"smiles": "CC(=O)N[C@H]1[C@H]([C@H](O)[C@H](O)CO)OC(O)(C(=O)O)C[C@@H]1O", "note": "(some centres unmarked) [sialic acid, N-acetylneuraminic acid, reference compound]", "values": [
      {"measurement": "growth / ability to ferment (OD600)", "setting": "[10]", "result": "None of the bifidobacteria are able to ferment"},
      {"measurement": "growth / ability to ferment (OD600)", "setting": "[2]", "result": "not able to ferment"},
      {"measurement": "growth / ability to ferment (OD600)", "setting": "[3]", "result": "not able to ferment"}
    ]}
  ]
}
